Data as given in PMC3006429 (PLoS ONE, 2010).
Several values for one entry are separate records, joined by “and”; a condition that tells them apart may be missing. Equal values may be shown once. Read-outs that look alike come from different tables or passages of the source.

Tests used:
[1] = molecular target: HIV-1 reverse transcriptase (HIV-1 RT) (Human immunodeficiency virus type 1 group M subtype B, UniProt P03366); type: biochemical
[2] = molecular target: Klenow Fragment (KF) of E. coli DNA polymerase I (Escherichia coli, UniProt P00582); type: biochemical
[3] = molecular target: T1, FMDV 3Dpol (Foot-and-mouth disease virus, UniProt P03311); assay: biochemical; conditions: IC50 of 3Dpol inhibition (gel-based)
[4] = molecular target: WT 3Dpol (Foot-and-mouth disease virus, UniProt P03311); assay: biochemical; conditions: IC50 (filter binding assay)
[5] = system: FMDV A24 Cruzeiro; assay: microbe, parasite or virus in culture; type: cell-based, Foot-and-Mouth Disease Virus
[6] = in vitro; conditions: hamster
[7] = molecular target: T1, FMDV 3Dpol; assay: biochemical; type: biochemical
[8] = system: FMDV; conditions: cited from earlier work; for EC50: read-out: EC50 (FMDV replication in cell cultures); for EC90: read-out: EC90 (FMDV replication in cell cultures)
[9] = molecular target: T1, FMDV 3Dpol; assay: biochemical

Klenow Fragment (KF) of E. coli DNA polymerase I, sequence (P00582 324-928): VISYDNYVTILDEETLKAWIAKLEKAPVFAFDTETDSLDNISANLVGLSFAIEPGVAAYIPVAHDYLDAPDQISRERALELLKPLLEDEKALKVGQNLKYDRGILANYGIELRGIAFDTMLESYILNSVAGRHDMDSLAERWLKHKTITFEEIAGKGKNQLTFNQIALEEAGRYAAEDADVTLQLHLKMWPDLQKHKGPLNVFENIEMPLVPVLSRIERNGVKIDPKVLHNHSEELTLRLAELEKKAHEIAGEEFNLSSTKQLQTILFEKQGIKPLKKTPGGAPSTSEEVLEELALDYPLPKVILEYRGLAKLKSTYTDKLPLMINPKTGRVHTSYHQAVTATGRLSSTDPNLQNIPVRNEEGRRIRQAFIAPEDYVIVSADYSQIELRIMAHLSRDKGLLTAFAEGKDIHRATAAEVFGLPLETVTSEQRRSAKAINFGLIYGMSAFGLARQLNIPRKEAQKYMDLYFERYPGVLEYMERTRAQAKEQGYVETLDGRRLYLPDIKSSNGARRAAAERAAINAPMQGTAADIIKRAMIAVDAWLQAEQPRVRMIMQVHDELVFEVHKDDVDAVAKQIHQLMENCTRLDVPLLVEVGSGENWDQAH
T1 sequence (P03311 1858-2327 limits assumed): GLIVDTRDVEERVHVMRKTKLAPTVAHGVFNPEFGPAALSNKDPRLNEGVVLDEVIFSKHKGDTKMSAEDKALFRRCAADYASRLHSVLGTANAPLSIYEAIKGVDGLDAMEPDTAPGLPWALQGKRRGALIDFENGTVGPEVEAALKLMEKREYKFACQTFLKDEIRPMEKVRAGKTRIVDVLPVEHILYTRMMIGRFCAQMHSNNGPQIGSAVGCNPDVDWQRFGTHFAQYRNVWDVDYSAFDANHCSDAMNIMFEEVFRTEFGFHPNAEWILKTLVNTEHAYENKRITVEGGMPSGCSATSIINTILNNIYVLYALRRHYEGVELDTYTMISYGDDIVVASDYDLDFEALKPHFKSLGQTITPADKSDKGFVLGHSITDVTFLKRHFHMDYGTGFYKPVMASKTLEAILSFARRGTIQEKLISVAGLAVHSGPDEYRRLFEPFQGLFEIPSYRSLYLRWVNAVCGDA
WT 3Dpol, sequence (P03311 1858-2327 limits assumed): as above

| SMILES | inhibition of HIV-1 RT polymerase activity [1] | inhibition of KF polymerase activity [2] | IC50 [3] | CC50 [6] [µM] | also measured |
| --- | --- | --- | --- | --- | --- |
| O=[N+]([O-])c1ccc(Sc2ccc(Cl)cc2Cl)c2nonc12 [1A8] | No significant inhibition | No significant inhibition | 17.8 µM |  | IC50 [4]: 17.4 µM and 17.8 µM |
| O=S(=O)(NNc1ncnc2sccc12)c1ccc(Cl)cc1 [5D9] | No significant inhibition | No significant inhibition | 12 µM | > 100 | antiviral potency relative to ribavirin [5]: ~80 fold; inhibition of viral replication [5]: inhibition of viral replication; EC50 ([5]; Foot-and-mouth disease virus, BHK-21, 24 h, read-out: EC50 (virus production in FMDV-infected cells)): 12 µM; EC90 ([5]; Foot-and-mouth disease virus, BHK-21, 24 h, read-out: EC90 (virus production in FMDV-infected cells)): 20 µM; inhibition at 20 µM ([5]; Foot-and-mouth disease virus, BHK-21, read-out: inhibition of virus replication): 90%; Ki [7]: 9.4 ± 2.5 µM; kinetic mechanism of inhibition [7]: non-competitive |
| C[C@@]1(O)[C@H](O)[C@@H](CO)O[C@H]1n1ccc(N)nc1=O [2′-C-methylcytidine] |  |  |  |  | EC50 [8]: 10 µM; EC90 [8]: 15 µM |
| O=C(Sc1cccs1)c1cncc(C#Cc2ccccc2)c1 [4H6] | No significant inhibition | No significant inhibition | 8 µM | > 100 |  |
| Cc1cn([C@@H]2O[C@H](COP(=O)(O)OP(=O)(O)OP(=O)(O)O)C[C@H]2O)c(=O)[nH]c1=O [DMUT, 3′-deoxy-5-methyl uridine triphosphate] |  |  |  |  | IC50 [9]: 680 nM |
| O=S1(=O)C=C(CSc2cccs2)c2cc(Cl)ccc21 [7F8] | No significant inhibition | No significant inhibition | 10 µM | > 100 | kinetic mechanism of inhibition [7]: non-competitive |
| NC(=O)c1ncn([C@@H]2O[C@H](CO)[C@@H](O)[C@H]2O)n1 [ribavirin] |  |  |  |  | EC50 [8]: 970 µM; EC90 [8]: 1700 µM |
| N#CC(C(=O)Nc1cccc(C(F)(F)F)c1)C(=S)Nc1ccccc1Cl (centres unmarked) [3A11] |  |  | ~2 µM and 2 µM | 70 |  |
| CCOC(=O)/C(=N\Nc1ccc(Br)cc1)C(=O)CSC#N [9A3] | No significant inhibition | No significant inhibition | 10 µM | > 100 |  |
| O=C1C(Cl)=C(Sc2ccccc2Br)C(=O)c2ccccc21 [8C5] | No significant inhibition | No significant inhibition | 5.4 µM | 55 | inhibition of viral replication [5]: inhibition of viral replication; IC50 [4]: 5.4 µM |
